In US20260297042A1, “BIARYLAMIDE DERIVATIVES AND THEIR USE AS PKMYT1 INHIBITORS” (CANCER RESEARCH TECHNOLOGY LIMITED, priority 2023, published 2026):

How the values were obtained:
KYSE-30 cells = assay: Cancer cell line proliferation assay, ATP-based cell viability (Cell Titre Glow), KYSE-30 (normal CCNE1); conditions: Homo sapiens, KYSE-30 cells (normal CCNE1), concentration that achieves 50% cell growth proliferation inhibition, read-out: KYSE30 Gl50
How it was run: (§1)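 GI50 values, the concentrations halving cell growth, were derived from ATP-based luminescence (Cell Titre Glo) after PKMYT1 inhibitor exposure. Cells tested were OVCAR 3, an ovarian line with amplified CCNE1, and KYSE-30, which has normal CCNE1.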

WEE1 = biological target: T1, WEE1 (Homo sapiens, UniProt P30291); assay: Selectivity versus WEE1 assay (ADP-Glo enzymatic assay); assay type: biochemical; conditions: for IC50: ADP-Glo; for PKMYT1 vs. WEE1 selectivity: fold difference in selectivity for PKMYT1 over WEE1
T1 construct: purchased Thermo Fisher PR7373A
T1 sequence (P30291 whole entry): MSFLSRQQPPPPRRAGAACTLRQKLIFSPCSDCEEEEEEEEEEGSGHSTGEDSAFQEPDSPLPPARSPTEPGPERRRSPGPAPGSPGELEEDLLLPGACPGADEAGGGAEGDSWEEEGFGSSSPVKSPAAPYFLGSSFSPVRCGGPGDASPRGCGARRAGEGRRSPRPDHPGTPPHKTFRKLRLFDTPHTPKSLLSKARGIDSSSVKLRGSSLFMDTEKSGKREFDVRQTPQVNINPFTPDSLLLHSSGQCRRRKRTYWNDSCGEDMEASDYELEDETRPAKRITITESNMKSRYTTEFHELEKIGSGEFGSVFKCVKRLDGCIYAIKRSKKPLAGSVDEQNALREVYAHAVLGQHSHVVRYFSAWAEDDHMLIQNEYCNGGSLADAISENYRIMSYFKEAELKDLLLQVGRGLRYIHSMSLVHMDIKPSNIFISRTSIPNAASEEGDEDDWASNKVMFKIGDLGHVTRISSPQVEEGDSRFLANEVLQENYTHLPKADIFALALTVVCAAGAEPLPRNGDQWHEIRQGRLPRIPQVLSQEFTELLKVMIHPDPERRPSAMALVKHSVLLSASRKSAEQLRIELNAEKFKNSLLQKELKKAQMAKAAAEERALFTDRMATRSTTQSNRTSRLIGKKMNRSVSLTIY
How it was run: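 WEE1 at 15 nM final in 50 mM HEPES pH 7.5, 10 mM MgCl2, 1 mM EGTA, 0.01% Brij-35, 1% DMSO; reaction started with 30 µM ATP, 60 min at 26 °C. ADP-Glo luminescence; IC50 from dose-response curves, replicates within 3-fold and r2 >0.9.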

Human PKMYT1 = biological target: T2, Human PKMYT1 (Homo sapiens, UniProt Q99640); assay: PKMYT1 biochemical ADP-Glo enzymatic assay; conditions: ADP-Glo
T2 construct: Human PKMYT1 75-362 was cloned as a TEV cleavable 6xHis fusion; 6xHis (TEV cleavable) (cleaved yes); made in house; host or cells: bacterial cells
T2 sequence (Q99640 75-362): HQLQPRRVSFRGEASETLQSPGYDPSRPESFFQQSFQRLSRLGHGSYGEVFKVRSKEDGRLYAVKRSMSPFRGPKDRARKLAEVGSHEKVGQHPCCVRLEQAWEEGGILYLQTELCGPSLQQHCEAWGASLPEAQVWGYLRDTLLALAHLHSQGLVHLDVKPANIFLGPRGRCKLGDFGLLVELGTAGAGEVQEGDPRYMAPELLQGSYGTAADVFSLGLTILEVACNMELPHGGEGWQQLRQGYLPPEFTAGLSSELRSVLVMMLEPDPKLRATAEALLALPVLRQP
How it was run: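 Purified untagged human PKMYT1 75-362 at 15 nM final was tested in HEPES pH 7.5 with MgCl2, EGTA, Brij-35 and 1% DMSO. Intrinsic ATPase activity was measured with 500 uM ATP over 60 min at 26° C. ADP-Glo luminescence was read and IC50 fitted from 10-point, 3-fold dilution curves.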

OVCAR 3 cells = assay: Cancer cell line proliferation assay, ATP-based cell viability (Cell Titre Glow), OVCAR 3 (CCNE1-amplified); conditions: KYSE30 (normal CCNE1) GI50 vs. OVCAR 3 (CCNE1-amplified) GI50
How it was run: as §1

[1] = biological target: T3, Cellular PKMYT1 Biomarker CDK1 pT14 (Homo sapiens, UniProt Q99640); assay: Inhibition of cellular PKMYT1 biomarker CDK1 pT14 in OVCAR 3 cells (immunoblot); assay type: cell-based; conditions: 20 hours incubation
T3 construct: read-out CDK1 phospho-T14 immunoblot
T3 sequence (Q99640 1-499): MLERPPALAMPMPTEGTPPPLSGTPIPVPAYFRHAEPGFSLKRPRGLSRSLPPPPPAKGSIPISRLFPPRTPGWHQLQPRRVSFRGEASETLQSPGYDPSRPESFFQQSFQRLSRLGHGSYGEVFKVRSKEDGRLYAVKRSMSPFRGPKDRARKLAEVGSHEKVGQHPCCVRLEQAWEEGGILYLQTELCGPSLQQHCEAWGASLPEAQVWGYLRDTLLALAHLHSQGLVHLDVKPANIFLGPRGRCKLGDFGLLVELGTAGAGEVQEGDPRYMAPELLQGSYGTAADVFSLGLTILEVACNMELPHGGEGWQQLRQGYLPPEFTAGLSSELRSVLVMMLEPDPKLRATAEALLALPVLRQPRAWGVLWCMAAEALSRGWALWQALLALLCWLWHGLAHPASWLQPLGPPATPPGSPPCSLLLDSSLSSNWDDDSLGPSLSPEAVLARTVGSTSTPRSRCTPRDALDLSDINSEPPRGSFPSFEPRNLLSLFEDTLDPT
How it was run: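 Confluent OVCAR 3 cells treated with a compound concentration range for 20 h at 37 °C. Lysates analysed by automated capillary immunoblot for CDK1 phospho-T14, with vinculin, fluorescence detection; IC50 by regression.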

[2] = PKMYT1 kinase domain 15 nM, banded values
[3] = 15 nM WEE1, 60 minutes at 26° C., banded
[4] = banded, ">N" = at least in this band but could be higher
[5] = 15 nM PKMYT1 kinase domain, 500 µM ATP, 60 minutes at 26° C., banded

Structure (SMILES) | GI50 (KYSE-30 cells) [nM] | IC50 (WEE1; WEE1 15 nM, banded values) [nM] | PKMYT1 vs. WEE1 selectivity (WEE1; banded) | IC50 (Human PKMYT1; [2]) [nM] | Selectivity ratio KYSE30 Gl50 vs. OVCAR3 Gl50 (OVCAR 3 cells) | IC50 [1] [nM] | IC50 (WEE1; [3]) [nM] | PKMYT1 vs. WEE1 selectivity (WEE1; [4]) | IC50 (Human PKMYT1; [5]) [nM]
Cc1ccc(O)c(C)c1NC(=O)c1cnc(Nc2nn(CCF)cc2Cl)s1 [BAA-582, 2-((4-chloro-1-(2-fluoroethyl)-1H-pyrazol-3-yl)amino)-N-(3-hydroxy-2,6-dimethylphenyl)thiazole-5-carboxamide] | 500 to 5000 | 1000 to 11000 | X (100-<1000 fold) | < 50 | Y (>20 fold) | < 100 | – | – | –
Cc1cn(-c2ccccn2)nc1Nc1ncc(C(=O)Nc2c(C)ccc(O)c2C)s1 [BAA-365, N-(3-hydroxy-2,6-dimethylphenyl)-2-((4-methyl-1-(pyridin-2-yl)-1H-pyrazol-3-yl)amino)thiazole-5-carboxamide] | 500 to 5000 | – | – | – | Y (>20 fold) | < 100 | > 11000 | X (100-<1000 fold) | < 50
Cc1ccc2c(Nc3ncc(C(=O)Nc4c(C)ccc(O)c4C)s3)nn(C)c2c1 [BAA-451, 2-((1,6-dimethyl-1H-indazol-3-yl)amino)-N-(3-hydroxy-2,6-dimethylphenyl)thiazole-5-carboxamide] | > 5000 | 1000 to 11000 | X (100-<1000 fold) | < 50 | Y (>20 fold) | < 100 | – | – | –
CCc1cn(CC(F)F)nc1Nc1ncc(C(=O)Nc2c(C)ccc(O)c2C)s1 [BAA-589, 2-((1-(2,2-difluoroethyl)-4-ethyl-1H-pyrazol-3-yl)amino)-N-(3-hydroxy-2,6-dimethylphenyl)thiazole-5-carboxamide] | > 5000 | 1000 to 11000 | X (100-<1000 fold) | < 50 | Y (>20 fold) | < 100 | – | – | –
COC[C@H]1CCCN1C(=O)Cn1cc(C)c(Nc2ncc(C(=O)Nc3c(C)ccc(O)c3C)s2)n1 [BAA-599, N-(3-Hydroxy-2,6-dimethyl-phenyl)-2-[[1-[2-[(2R)-2-(methoxymethyl)pyrrolidin-1-yl]-2-oxo-ethyl]-4-methyl-pyrazol-3-yl]amino]thiazole-5-carboxamide] | > 5000 | 1000 to 11000 | X (100-<1000 fold) | < 50 | Y (>20 fold) | 100 to 1000 | – | – | –
CCc1c[nH]nc1Nc1ncc(C(=O)Nc2c(C)ccc(O)c2C)s1 [BAA-594, 2-((4-Ethyl-1H-pyrazol-3-yl)amino)-N-(3-hydroxy-2,6-dimethylphenyl)thiazole-5-carboxamide] | > 5000 | 1000 to 11000 | X (100-<1000 fold) | < 50 | Y (>20 fold) | < 100 | – | – | –
Cc1ccc(-c2cnn(C)c2)nc1Nc1ncc(C(=O)Nc2c(C)ccc(O)c2C)s1 [BAA-396, N-(3-hydroxy-2,6-dimethylphenyl)-2-((3-methyl-6-(1-methyl-1H-pyrazol-4-yl)pyridin-2-yl)amino)thiazole-5-carboxamide] | 500 to 5000 | 1000 to 11000 | X (100-<1000 fold) | < 50 | Y (>20 fold) | < 100 | – | – | –
Cc1ccc(O)c(C)c1NC(=O)c1cnc(Nc2ccc3ccncc3n2)s1 [BAA-597, 2-((1,7-naphthyridin-2-yl)amino)-N-(3-hydroxy-2,6-dimethylphenyl)thiazole-5-carboxamide] | 500 to 5000 | > 11000 | X (100-<1000 fold) | < 50 | Y (>20 fold) | 100 to 1000 | – | – | –
Cc1ccc(O)c(C)c1NC(=O)c1cnc(Nc2nccc3ccc(F)cc23)s1 [BAA-303, 2-((7-fluoroisoquinolin-1-yl)amino)-N-(3-hydroxy-2,6-dimethylphenyl)thiazole-5-carboxamide] | 500 to 5000 | – | – | – | X (3-20 fold) | < 100 | > 11000 | Y (1000-5000 fold) | < 50
Cc1cc(Nc2ncc(C(=O)Nc3c(C)ccc(O)c3C)s2)nc(OCC(F)(F)F)n1 [BAA-319, N-(3-hydroxy-2,6-dimethylphenyl)-2-((6-methyl-2-(2,2,2-trifluoroethoxy)pyrimidin-4-yl)amino)thiazole-5-carboxamide] | 500 to 5000 | – | – | – | Y (>20 fold) | < 100 | > 11000 | Y (1000-5000 fold) | < 50
Cc1cn(CC2CCOC2)nc1Nc1ncc(C(=O)Nc2c(C)ccc(O)c2C)s1 (stereo not drawn) [BAA-543] | > 5000 | 1000 to 11000 | W (10-<100 fold) | < 50 | Y (>20 fold) | < 100 | – | – | –
COCC1(N(C)C(=O)Cn2cc(C)c(Nc3ncc(C(=O)Nc4c(C)ccc(O)c4C)s3)n2)CC1 [BAA-607] | > 5000 | 1000 to 11000 | X (100-<1000 fold) | < 50 | Y (>20 fold) | < 100 | – | – | –
Cc1cn(-c2cnn(C(F)F)c2)nc1Nc1ncc(C(=O)Nc2c(C)ccc(O)c2C)s1 [BAA-394, 2-((1′-(difluoromethyl)-4-methyl-1′H-[1,4′-bipyrazol]-3-yl)amino)-N-(3-hydroxy-2,6-dimethylphenyl)thiazole-5-carboxamide] | 500 to 5000 | 1000 to 11000 | X (100-<1000 fold) | < 50 | Y (>20 fold) | < 100 | – | – | –
Cc1ccc(O)c(C)c1NC(=O)c1cnc(Nc2ccc3ncccc3n2)s1 [BAA-596, 2-((1,5-naphthyridin-2-yl)amino)-N-(3-hydroxy-2,6-dimethylphenyl)thiazole-5-carboxamide] | 500 to 5000 | > 11000 | Y (1000-5000 fold) | < 50 | Y (>20 fold) | 100 to 1000 | – | – | –
Cc1cnccc1-n1cc(C)c(Nc2ncc(C(=O)Nc3c(C)ccc(O)c3C)s2)n1 [BAA-384, N-(3-hydroxy-2,6-dimethylphenyl)-2-((4-methyl-1-(3-methylpyridin-4-yl)-1H-pyrazol-3-yl)amino)thiazole-5-carboxamide] | 500 to 5000 | – | – | – | Y (>20 fold) | < 100 | 1000 to 11000 | X (100-<1000 fold) | < 50
Cc1ccc(O)c(C)c1NC(=O)c1cnc(Nc2cccc(NC(=O)c3ccc(F)cc3)n2)s1 [BAA-320, 2-((6-(4-fluorobenzamido)pyridin-2-yl)amino)-N-(3-hydroxy-2,6-dimethylphenyl)thiazole-5-carboxamide] | 500 to 5000 | – | – | – | Y (>20 fold) | < 100 | > 11000 | Y (1000-5000 fold) | < 50
